Results published in patent US20230310388A1, “Methods and Compositions for Treating Fungal Infections” (Neoculi Pty Ltd, priority 2020, published 2023).
In brackets after ≈: the same amount, converted by molar mass. Several values for one entry are separate records, joined by “and”; a condition that tells them apart may be missing. Equal values may be shown once.

Experiments:
Candida albicans [1] = experiment: CLSI broth microdilution MIC (Example 4); type: cell-based; details: for antifungal activity against the two isolates of Candida albicans: summary in words
Description: (§1) Antifungal minimum inhibitory concentration (MIC) testing was undertaken as recommended by the CLSI. Briefly, antifungal susceptibility tests were performed for amphotericin B, robenidine (NCL812) and robenidine (NCL) analogs (NCL004, NCL020, NCL023, NCL024, NCL062, NCL094, NCL097, NCL110, NCL113, NCL114, NCL115, NCL135, NCL139, NCL180, NCL181, NCL195, NCL219, NCL220, NCL228, NCL247, NCL250, NCL259, NCL260, NCL263, NCL265, NCL269, NCL274) by standard broth microdilution method (CLSI) in RPMI 1640. Various concentrations (ranging from high to low) of the selected compounds were prepared in RPMI 1640 medium by double dilution in 96-well microtitre plates. Each well contained an inoculum of approximately 2×10^3 cells/mL. The wells without addition of drugs served as negative (no inoculum) and positive (inoculum only) growth controls. Microtitre plates were incubated at 35° C. for 24-48 hours. […] Antifungal MICs were determined for each isolate in duplicate; if the values obtained were different, the MIC test was repeated a third time.

Cryptococcus neoformans [2] = experiment: CLSI broth microdilution MIC (Example 4); type: cell-based
Description: as §1

Candida albicans [3] = experiment: CLSI broth microdilution MIC (Example 6); type: cell-based
Description: (§2) Antifungal minimum inhibitory concentration (MIC) testing was undertaken as recommended by the CLSI (1). Briefly, antifungal susceptibility tests were performed for amphotericin B, robenidine (NCL812) and 10 robenidine analogs (NCL023, NCL024, NCL097, NCL113, NCL115, NCL195, NCL219, NCL220, NCL259, NCL265) by standard broth microdilution method (CLSI) in RPMI 1640. Various concentrations (ranging from high to low) of the selected compounds were prepared in RPMI 1640 medium by double dilution in 96-well microtitre plates. Each well contained an inoculum of approximately 2×10^3 cells/mL. The wells without addition of drugs served as negative (no inoculum) and positive (inoculum only) growth controls. Microtitre plates were incubated at 35° C. for 24-48 hours. […] Antifungal MICs were determined for each isolate in duplicate; if the values obtained were different, the MIC test was repeated a third time.

Cryptococcus neoformans [4] = experiment: CLSI broth microdilution MIC (Example 6); type: cell-based
Description: as §2

C. gattii = experiment: CLSI broth microdilution MIC (Example 6); type: cell-based, Cryptococcus gattii
Description: as §2

[5] = tested on: Candida albicans ATCC14053; experiment: Broth micro-dilution screen at 16 μg/mL and MIC (Example 9); type: cell-based; details: for MIC: C. albicans ATCC14053, test range 0.25-64 μg/mL, duplicate; for Screen at 16 μg/mL: single concentration 16 μg/mL, Growth or No growth of C. albicans ATCC14053
Description: The antifungal activity of 201 NCL analogs against Candida albicans ATCC14053 in vitro was investigated. A broth micro-dilution method was used, according to CLSI guidelines as described. NCL analogs were dissolved in DMSO and originally screened at a single concentration of 16 μg/mL.

Candida albicans [6] = experiment: CLSI broth microdilution MIC (Example 5); type: cell-based
Description: as §2, with “CLSI.” for “CLSI (1).”, “and” for “and 10”, “(NCL23, NCL24, NCL97,” for “(NCL023, NCL024, NCL097,”

Cryptococcus neoformans [7] = experiment: CLSI broth microdilution MIC (Example 5); type: cell-based
Description: as §2, with “CLSI.” for “CLSI (1).”, “and” for “and 10”, “(NCL23, NCL24, NCL97,” for “(NCL023, NCL024, NCL097,”

[8] = human clinical isolate C. neoformans var grubii 16-90050434
[9] = human clinical isolate C. neoformans var grubii 17-90028233
[10] = human clinical isolate C. neoformans var grubii 17-93996464
[11] = human clinical isolate C. neoformans var grubii 17-93996964
[12] = human clinical isolate C. gatti 17-90232099
[13] = human clinical isolate C. gattii 16-90050373
[14] = human clinical isolate C. gattii 17-90028211
[15] = human clinical isolate C. gattii 17-90028217
[16] = human clinical isolate C. gattii 17-90028242
[17] = clinical isolate C. albicans 12-93301752 Azole Resistant
[18] = clinical isolate C. albicans 14-90045999 Azole Resistant
[19] = clinical isolate C. albicans 15-45171061
[20] = clinical isolate C. albicans 15-91329871
[21] = clinical isolate C. albicans 16-24136919 Azole Resistant
[22] = clinical isolate C. albicans 16-46177400
[23] = clinical isolate C. albicans 16-90050810
[24] = clinical isolate C. albicans 16-90054237
[25] = clinical isolate C. albicans 18-144-00196
[26] = clinical isolate C. albicans 18-148-08188 Azole Resistant
[27] = human clinical isolate C. neoformans serotype A/D hybrid

Row | SMILES | MIC at 24-48 hours (Candida albicans [1]; Candida albicans ATCC 90028) | MIC at 24-48 hours (Candida albicans [1]; Candida albicans SA3) | MIC at 24-48 hours (Cryptococcus neoformans [2]; Cryptococcus neoformans SA1) | MIC at 24-48 hours (Cryptococcus neoformans [2]; Cryptococcus neoformans SA2) | MIC (Candida albicans [3]; C. albicans SA3) | MIC (Candida albicans [3]; Candida albicans ATCC 90028) | MIC (Cryptococcus neoformans [4]; Cryptococcus neoformans SA1) | MIC (Cryptococcus neoformans [4]; Cryptococcus neoformans SA2) | MIC (Cryptococcus neoformans [4]; [8]) | MIC (Cryptococcus neoformans [4]; [9]) | MIC (Cryptococcus neoformans [4]; [10]) | MIC (Cryptococcus neoformans [4]; [11]) | MIC (C. gattii; [12]) | MIC (C. gattii; [13]) | MIC (C. gattii; [14]) | MIC (C. gattii; [15]) | MIC (C. gattii; [16]) | Screen at 16 μg/mL [5] | MIC (Candida albicans [6]; C. albicans SA3) | MIC (Candida albicans [6]; Candida albicans ATCC 90028) | other results
1 | Cl.N=C(NN=Cc1cc(O)c(O)c(O)c1)NN=Cc1cc(O)c(O)c(O)c1 [NCL097] | 32 µg/mL | 8 µg/mL | 16 µg/mL | 16 µg/mL | 8 µg/mL | 32 µg/mL | 16 µg/mL | 16 µg/mL | 16 to 32 µg/mL | 32 µg/mL | 32 µg/mL | 32 µg/mL | 32 µg/mL | 16 µg/mL | 16 µg/mL | 32 µg/mL | 32 µg/mL | No growth | 8 µg/mL | 32 µg/mL | antifungal activity against the two isolates of Candida albicans (Candida albicans [1]): high antifungal activity; MIC (Cryptococcus neoformans [4]; human clinical isolate C. neoformans serotype A/D hybrid, listed as NCL97): 16 µg/mL and 32 µg/mL; MIC [5]: 0.5 µg/mL; MIC (Candida albicans [6]; [17]): 8 µg/mL; MIC (Candida albicans [6]; [18]): 8 µg/mL; MIC (Candida albicans [6]; [19]): 4 µg/mL; MIC (Candida albicans [6]; [20]): 8 µg/mL; MIC (Candida albicans [6]; [21]): 4 to 8 µg/mL; MIC (Candida albicans [6]; [22]): 8 µg/mL; MIC (Candida albicans [6]; [23]): 8 µg/mL; MIC (Candida albicans [6]; [24]): 4 µg/mL; MIC (Candida albicans [6]; [25]): 8 to 16 µg/mL; MIC (Candida albicans [6]; [26]): 8 µg/mL; activity against all tested isolates of Cryptococcus neoformans and Candida albicans (Candida albicans [6]; summary in words): active; activity against one or more isolates of Cryptococcus neoformans and Candida albicans (Candida albicans [6]; summary in words): highly active; MIC (Cryptococcus neoformans [7]; Cryptococcus neoformans SA1): 16 µg/mL; MIC (Cryptococcus neoformans [7]; Cryptococcus neoformans SA2): 16 µg/mL
2 | CN(C)c1ccc(/C=N/NC(=N)N/N=C/c2ccc(N(C)C)cc2)cc1.Cl [NCL113] | >32 µg/mL | >32 µg/mL | 4 µg/mL | 4 µg/mL | >32 µg/mL | >32 µg/mL | 4 µg/mL | 4 µg/mL | 4 µg/mL | 4 µg/mL | 4 µg/mL | 4 µg/mL | 4 µg/mL | 2 to 4 µg/mL | 4 µg/mL | 4 to 8 µg/mL | 2 to 4 µg/mL | No growth | >32 µg/mL | >32 µg/mL | MIC (Cryptococcus neoformans [4]; [27]): 4 µg/mL; MIC [5]: 4 µg/mL and 8 µg/mL; MIC (Candida albicans [6]; [17]): 8 µg/mL; MIC (Candida albicans [6]; [18]): 8 to 16 µg/mL; MIC (Candida albicans [6]; [19]): 8 µg/mL; MIC (Candida albicans [6]; [20]): 8 µg/mL; MIC (Candida albicans [6]; [21]): 8 µg/mL; MIC (Candida albicans [6]; [22]): 16 µg/mL; MIC (Candida albicans [6]; [23]): 16 µg/mL; MIC (Candida albicans [6]; [24]): 8 µg/mL; MIC (Candida albicans [6]; [25]): 8 µg/mL; MIC (Candida albicans [6]; [26]): 8 µg/mL; activity against one or more isolates of Cryptococcus neoformans and Candida albicans (Candida albicans [6]; summary in words): highly active; MIC (Cryptococcus neoformans [7]; Cryptococcus neoformans SA1): 4 µg/mL; MIC (Cryptococcus neoformans [7]; Cryptococcus neoformans SA2): 4 µg/mL
3 | COc1ccc(C=NNC(=N)NN=Cc2ccc(OC)c(OC)c2)cc1OC.Cl [NCL115] | >32 µg/mL | >32 µg/mL | 8 µg/mL | 8 µg/mL | >32 µg/mL | >32 µg/mL | 8 µg/mL | 8 µg/mL | >32 µg/mL | >32 µg/mL | >32 µg/mL | >32 µg/mL | >32 µg/mL | >32 µg/mL | >32 µg/mL | >32 µg/mL | >32 µg/mL | Growth | >32 µg/mL | >32 µg/mL | MIC (Cryptococcus neoformans [4]; [27]): >32 µg/mL; MIC (Candida albicans [6]; [17]): >16 µg/mL; MIC (Candida albicans [6]; [18]): 8 µg/mL; MIC (Candida albicans [6]; [19]): >16 µg/mL; MIC (Candida albicans [6]; [20]): >16 µg/mL; MIC (Candida albicans [6]; [21]): >16 µg/mL; MIC (Candida albicans [6]; [22]): >16 µg/mL; MIC (Candida albicans [6]; [23]): >16 µg/mL; MIC (Candida albicans [6]; [24]): >16 µg/mL; MIC (Candida albicans [6]; [25]): >16 µg/mL; MIC (Candida albicans [6]; [26]): >16 µg/mL; activity against one or more isolates of Cryptococcus neoformans and Candida albicans (Candida albicans [6]; summary in words): highly active; MIC (Cryptococcus neoformans [7]; Cryptococcus neoformans SA1): 8 µg/mL; MIC (Cryptococcus neoformans [7]; Cryptococcus neoformans SA2): 8 µg/mL
4 | Nc1nc(NN=Cc2ccc(F)cc2)cc(NN=Cc2ccc(F)cc2)n1 [NCL220] | 32 µg/mL (≈ 87.1 µM) | 32 µg/mL (≈ 87.1 µM) | 2 µg/mL (≈ 5.44 µM) | 4 µg/mL (≈ 10.9 µM) | 32 µg/mL (≈ 87.1 µM) | 32 µg/mL (≈ 87.1 µM) | 2 µg/mL (≈ 5.44 µM) | 4 µg/mL (≈ 10.9 µM) | 32 µg/mL (≈ 87.1 µM) | >32 µg/mL | 32 µg/mL (≈ 87.1 µM) | 32 µg/mL (≈ 87.1 µM) | 4 µg/mL (≈ 10.9 µM) | >32 µg/mL | 32 µg/mL (≈ 87.1 µM) | 4 µg/mL (≈ 10.9 µM) | 32 µg/mL (≈ 87.1 µM) | Growth | 32 µg/mL (≈ 87.1 µM) | 32 µg/mL (≈ 87.1 µM) | antifungal activity against the two isolates of Candida albicans (Candida albicans [1]): high antifungal activity; MIC (Cryptococcus neoformans [4]; [27]): 32 µg/mL (≈ 87.1 µM); MIC [5]: >64 µg/mL; MIC (Candida albicans [6]; [17]): 4 µg/mL (≈ 10.9 µM); MIC (Candida albicans [6]; [18]): >16 µg/mL; MIC (Candida albicans [6]; [19]): >16 µg/mL; MIC (Candida albicans [6]; [20]): 8 µg/mL (≈ 21.8 µM); MIC (Candida albicans [6]; [21]): 4 µg/mL (≈ 10.9 µM); MIC (Candida albicans [6]; [22]): >16 µg/mL; MIC (Candida albicans [6]; [23]): >16 µg/mL; MIC (Candida albicans [6]; [24]): 8 µg/mL (≈ 21.8 µM); MIC (Candida albicans [6]; [25]): 8 µg/mL (≈ 21.8 µM); MIC (Candida albicans [6]; [26]): 4 µg/mL (≈ 10.9 µM); activity against one or more isolates of Cryptococcus neoformans and Candida albicans (Candida albicans [6]; summary in words): highly active; MIC (Cryptococcus neoformans [7]; Cryptococcus neoformans SA1): 2 µg/mL (≈ 5.44 µM); MIC (Cryptococcus neoformans [7]; Cryptococcus neoformans SA2): 4 µg/mL (≈ 10.9 µM)
